From patent US20240279338A1, “Combination Treatment of Cancer” (Ares Trading S.A., priority 2021, published 2024)

Legend:
[1] = system: 4T1 cells; assay: CD73hi adenosine-rich 4T1 syngeneic tumor model, tumor growth; assay type: in vivo; conditions: 4T1, female BALB/c mice; Day 13 post treatment initiation; Compound A 300 mg/kg po bid; bintrafusp alfa 24.6 mg/kg iv days 0, 3, 6
Procedure: Female BALB/c mice were inoculated with 5×10^4 4T1 cells into the right mammary fat pad and were treated with Compound A (300 mg/kg po, bid), bintrafusp alfa (24.6 mg/kg iv, days 0, 3, 6), Compound A+bintrafusp alfa, when average tumor volume reached approximately 60 mm^3. Vehicle (po, bid) and isotype control antibody injections (20 mg/kg iv, days 0, 3, 6) were used as controls. (A) Average tumor volumes with SEM, and (B) individual tumor volumes are presented. Tumor volume data were analyzed using two-way ANOVA followed by Tukey's multiple comparison test.
(§1) To determine whether combined treatment with the dual A2A/A2B receptor inhibitor “Compound A” ((S)-7-Oxa-2-aza-spiro[4.5]decane-2-carboxylic acid [7-(3,6-dihydro-2H-pyran-4-yl)-4-methoxy-thiazolo[4,5-c]pyridin-2-yl]-amide) and bintrafusp alfa can inhibit tumor growth in either CD73^hi or CD73^low models, tumor growth was monitored in […] syngeneic tumor models. Animals were inoculated with either CD73^hi tumor cells (4T1, E0771, or EMT6) or with CD73^low MC38, H22 or MBT2 tumor cells. For all tumor models, animals were treated with either 1) vehicle and isotype, 2) Compound A and isotype, 3) vehicle and bintrafusp alfa, or 4) Compound A and bintrafusp alfa. […]

[2] = system: MC38 cells; assay: CD73low MC38 syngeneic tumor model, tumor growth; assay type: in vivo, mice
Procedure: Female C57BL/6 mice were inoculated with 1×10^6 MC38 cells in the right lower flank and were treated with Compound A (300 mg/kg po, BID), bintrafusp alfa (24.6 mg/kg iv, days 0, 3, 6), Compound A+bintrafusp alfa, when average tumor volume reached approximately 70 mm^3. Vehicle (po, BID) and isotype control antibody injections (20 mg/kg iv, days 0, 3, 6) were used as controls. (A) Average tumor volumes with SEM, and (B) individual tumor volumes are presented. Tumor volume data were analyzed using two-way ANOVA followed by Tukey's multiple comparison test.
as §1

[3] = system: CD73 KO 4T1 tumor cells; assay: CD73-KO 4T1 syngeneic tumor model, tumor growth; assay type: in vivo; conditions: CD73 KO 4T1, female BALB/c mice; Day 18 post treatment initiation; Compound A 300 mg/kg po bid; bintrafusp alfa 24.6 mg/kg iv days 0, 3, 6
Procedure: Female BALB/c mice were inoculated with 1×10^5 CD73 KO 4T1 tumor cells into the right mammary fat pad and were treated with Compound A (300 mg/kg po, bid), bintrafusp alfa (24.6 mg/kg iv, days 0, 3, 6), Compound A+bintrafusp alfa, when average tumor volume reached approximately 60 mm^3. Vehicle (po, bid) and isotype control antibody injections (20 mg/kg iv, days 0, 3, 6) were used as controls. (A) Average tumor volumes with SEM, and (B) individual tumor volumes are presented. Tumor volume data were analyzed using two-way ANOVA followed by Tukey's multiple comparison test.
Further to the results of Example 3, tumor growth inhibition by the combined treatment with the dual A2A/A2B receptor inhibitor “Compound A” ((S)-7-Oxa-2-aza-spiro[4.5]decane-2-carboxylic acid [7-(3,6-dihydro-2H-pyran-4-yl)-4-methoxy-thiazolo[4,5-c]pyridin-2-yl]-amide) and bintrafusp alfa was examined in a syngeneic 4T1 tumor model, in which CD73 was knocked-out using GenCRISPR™ gene editing technology (GenScript USA, Inc). Efficacy of CD73 knockout in 4T1 tumor cells was confirmed by flow cytometry. Female BALB/c mice were inoculated into the right mammary fat pad with 1×10^5 CD73 KO 4T1 tumor cells and were treated with Compound A (300 mg/kg po, bid), bintrafusp alfa (24.6 mg/kg iv, days 0, 3, 6), Compound A+bintrafusp alfa, when average tumor volume reached approximately 60 mm^3. […]

bintrafusp alfa: anti-PD-L1:TGFβRII fusion protein, CAS 1918149-01-5; human IgG1 antibody against PD-L1 fused to extracellular domain of human TGF-β receptor II
tumor growth inhibition, T/C [1]: 86.2% | tumor growth inhibition, T/C ([2]; MC38, female C57BL/6 mice, Day 22 post treatment initiation, Compound A 300 mg/kg po BID, bintrafusp alfa 24.6 mg/kg iv days 0, 3, 6): 42.1% | tumor growth inhibition, T/C [3]: 75.4%

COc1ncc(C2=CCOCC2)c2sc(NC(=O)N3CC[C@@]4(CCCOC4)C3)nc12 [Compound A, (S)-7-Oxa-2-aza-spiro[4.5]decane-2-carboxylic acid [7-(3,6-dihydro-2H-pyran-4-yl)-4-methoxy-thiazolo[4,5-c]pyridin-2-yl]-amide]
tumor growth inhibition, T/C [1]: 68.5% | tumor growth inhibition ([2]; MC38, Compound A 300 mg/kg po BID monotherapy): no tumor growth inhibition observed | tumor growth inhibition, T/C [3]: 108%
